Measured values published in patent publication US20250312416A1, “METHOD AND PHARMACEUTICAL COMPOSITION FOR CARTILAGE REGENERATION” (FAR EASTERN MEMORIAL HOSPITAL, priority 2024, published 2025).
Entries after “also recorded” stand apart in the source; their conditions may differ.

Legend:
[1] = tested on: ADSCs; assay: Cellular uptake of fluorescently labeled peptides by fluorescence microscopy; type: cell-based, human; details: 10 ng FITC-conjugated peptide, 37° C. for one day, observed days 1, 3, 7
Procedure: Cell-penetrating properties of CXCL14-P and CXCL12-P peptides in ADSCs were analyzed. ADSCs were incubated with 10 ng of FITC-conjugated peptides at 37° C. for one day, followed by refreshing the chondrogenic medium. Peptide internalization was evaluated through fluorescence microscopy on days 1, 3, and 7.
We further explored whether peptides derived from CXCL14 and CXCL12 have the capacity to induce chondrogenesis in MSCs from different sources. To assess their potential, ADSCs were utilized in the study to evaluate the chondrogenic capacity of CXCL14-P and CXCL12-P on day 7 (FIG. 10A). […] FIG. 11 illustrates the cell-penetrating properties of CXCL14-P and CXCL12-P peptides in ADSCs, analyzed at different time points. ADSCs were incubated with FITC-conjugated peptides for one day, after which the chondrogenic medium was refreshed. […] Collectively, these observations indicate that CXCL14-P and CXCL12-P have the ability to stimulate chondrogenesis and further amplify the effects of TGF-β during the chondrogenic process.

[2] = tested on: clinical-grade ADSCs; assay: Alcian blue staining of chondrogenic pellets (GAG), ADSCs; type: cell-based, human; details: for GAG deposition (Alcian blue): day 7, CXCL14 variants vs CXCL14-P, CXCR4-PM1 vs control
Procedure: The chondrogenic differentiation of pellets containing clinical-grade ADSCs was assessed through Alcian blue staining.
The chondrogenic differentiation of pellets containing clinical-grade ADSCs was evaluated using Alcian blue staining.
(§1) Alcian blue staining was used to assess the chondrogenic differentiation of ADSC pellets. […] Treatment with CXCL14-PM1, CXCL14-PM2, CXCL14-PM3, and CXCR4-PM1 was sufficient to enhance the expression of chondrogenic genes in ADSCs. On day 7, real-time PCR was performed to analyze the expression of key chondrogenic markers, including SOX9, COL2A1, COMP, ACAN, ITGB1, CXCL14, and CXCR4, in ADSCs treated with these modified peptides. ADSCs were exposed to distinct peptide modifications derived from CXCL12, CXCL14, and CXCR4 at a concentration of 10 ng for a one-day treatment, after which the medium was replaced with fresh peptide-free medium. At the end of the treatment period, RNA was extracted to evaluate the expression levels of chondrogenesis-related cytokine genes. Gene expression quantification was performed using a LightCycler system (Roche Applied Science), and fold changes were calculated relative to untreated control ADSCs. […] FIG. 16(D) provides a summary of the results for alanine substitution with positively or negatively charged amino acids in CXCL12, CXCL14, and CXCR4 peptides.
To assess differentiation capacity, single-cell suspensions from cultured IPFP-MSCs and ADSCs were cultivated in chondrogenic medium. Alcian Blue staining was performed on day 7 to evaluate chondrogenic differentiation. The chondrogenic differentiation test was measured gene expressions of ACAN, COL2A1, SOX9, COMP, ITGB1, CXCL14 and SOSTDC1.

[3] = tested on: UC-MSCs; assay: Alcian blue staining of chondrogenic pellets (GAG), UC-MSCs; type: cell-based; details: in the presence of TGF-beta
Description: (§2) FIG. 13A provides flowchart illustrating the protocol for peptide treatment and sample collection. […] TGF-beta influenced the expression of chondrogenic genes, including ITGB1 and COMP. […] Treatment with CXCL14/CXCL12 peptides increased GAG content during chondrogenesis in the presence of TGF-beta.
(§3) To further validate the role of CXCL14-P and CXCL12-P in regulating chondrogenesis, we compared their effects on another MSC source, umbilical cord-derived mesenchymal stem cells (UC-MSCs). It is important to note that the chondrogenic induction medium contained TGF-β. During chondrogenesis, we observed that the chondrogenic patterns in UC-MSCs were lower than those in ADSCs (FIG. 12). Subsequently, we assessed the chondrogenic potential of UC-MSCs following stimulation with CXCL14-P and CXCL12-P (FIG. 13A). […] Although the expression of chondrogenic genes (FIG. 13B) and GAG content (FIG. 13C) in UC-MSCs was not as pronounced as in ADSCs, the findings confirm that CXCL14-P and CXCL12-P can robustly stimulate chondrogenesis across different MSC sources.

[4] = tested on: clinical-grade ADSCs; assay: Real-time PCR of chondrogenic genes in ADSCs; type: cell-based, human; details: for expression of chondrogenic genes (SOX9, COL2A1, COMP, ACAN, ITGB1, CXCL14, CXCR4): alanine-substituted variants, 10 ng one-day treatment, day 7, relative to untreated control ADSCs
Procedure: Real-time PCR analysis was conducted on day 7 for CXCL12/CXCL14 peptides treated ADSCs, evaluating the expression of COMP, SOX9, COL2A1, ACAN, ITGB1, and SOSTDC1 genes. Cells were harvested, and RNA extraction was performed using a LightCycler® (Roche Applied Science). The fold change in gene expression on the y-axis was calculated relative to the same gene expression in untreated chondrocytes. Statistical analysis was conducted using one-way ANOVA. Significance levels are denoted as follows: * p<0.05, ** p<0.01, *** p<0.001, and **** p<0.0001 for comparisons between PBS treatments and the untreated group.
Real-time PCR analysis was performed on day 7 for ADSCs treated with CXCR4 agonists, assessing the expression of COMP, SOX9, COL2A1, ACAN, ITGB1, CXCL14, and SOSTIC1 genes. Cellular harvest, RNA extraction, and gene expression quantification were conducted using a LightCycler® (Roche Applied Science). The fold change in gene expression on the y-axis was calculated relative to the same gene expression in untreated chondrocytes. Statistical analysis was executed through one-way ANOVA. Significance levels are represented as follows: * p<0.05, ** p<0.01, *** p<0.001, and **** p<0.0001, indicating the significance of comparisons between PBS treatments and the untreated group.
as §1
ADSCs were treated with CXCL14-P, CXCL14-P1, or CXCL14-P2, respectively, at a concentration of 10 ng for 24 hours, after which the medium was replaced with fresh peptide-free medium. On day 7, total RNA was extracted, and real-time PCR analysis was performed to assess the expression levels of key chondrogenic markers, including ACAN, COL2A1, SOX9, and COMP. Gene expression levels were quantified using a LightCycler system (Roche Applied Science), with fold changes calculated relative to untreated control ADSCs. […] Immunofluorescence staining was performed to detect Collagen Type II, SOX9, COMP, and nuclei (Hoechst 33342) in 3D ADSC spheroids (middle panel). […]
Human IPFP-MSCs and ADSCs were expanded in Dulbecco's Modified Eagle's Medium (DMEM, Gibco, cat. no 2145484) with 10% FBS under a 37° C., 5% CO2 atmosphere. MSCs collected and cell extractions were determined gene expression levels of cytokines and chondrogenic markers using a LightCycler® (Roche Applied Science). The fold change in gene expression on the y-axis was calculated based on untreated cell gene expression.

[5] = tested on: UC-MSCs; assay: Real-time PCR of chondrogenic genes in UC-MSCs; type: cell-based; details: day 7 of peptide treatment
Description: as §2, §3

[6] = tested on: ADSC spheroids; assay: Immunofluorescence / confocal microscopy of chondrogenic proteins in ADSC spheroids; type: cell-based, human; details: ADSC spheroids, 7 days
Procedure: Both side views (observed in the x and z plane) and bottom views (observed in the […]) of the images are provided. The scale bar is set at 500 μm.
ADSCs were treated with CXCL14-P, CXCL14-P1, or CXCL14-P2, respectively, at a concentration of 10 ng for 24 hours, after which the medium was replaced with fresh peptide-free medium. On day 7, total RNA was extracted, and real-time PCR analysis was performed to assess the expression levels of key chondrogenic markers, including ACAN, COL2A1, SOX9, and COMP. Gene expression levels were quantified using a LightCycler system (Roche Applied Science), with fold changes calculated relative to untreated control ADSCs. […] Immunofluorescence staining was performed to detect Collagen Type II, SOX9, COMP, and nuclei (Hoechst 33342) in 3D ADSC spheroids (middle panel).
(FIG. 3). […] Moreover, fluorescence confocal microscopy was employed to detect protein patterns and confirm the levels of SOX9, type II collagen, and aggrecan proteins in ADSC spheroids. […] Finally, to investigate whether the CXCR4 receptor of CXCL12/CXCL14 confers chondrogenic signaling during chondrogenesis, we treated ADSCs with a CXCR4 agonist for 7 days.
Extracellular vesicles (EVs) derived from MSCs hold significant potential for repairing damaged tissues. In this study, we explored whether EVs from ADSCs could effectively enhance chondrogenesis and promote cartilage repair. Immunofluorescence staining was used to assess protein levels of Collagen Type II (green), SOX9 (red), COMP (indigo), and Hoechst 33342 (gray) in 3D ADSC spheroids treated with MSC-EVs derived from CXCL14 peptide-primed ADSCs (CXCL14-P-MSC-EVs) at various time points. […] To further explore the cartilage repair functions of EVs from CXCL14-P-treated ADSCs and the encapsulation of the transcription factor SOX9 within MSCs and purified EVs, we performed in vivo studies.

## RANVKHLKILN [CXCL12-P]
[1]
  peptide internalization (cell penetration): remain detectable up to day 7
[2]; in the absence of TGF-β
  GAG content (Alcian blue): evident
[2]; in the presence of TGF-beta
  GAG content (Alcian blue): significantly increased
[2]; peptides compared to CXCL14/CXCL12 proteins, listed as CXCL12 peptide
  GAG content (Alcian blue): significantly higher; also recorded: greater ability
[3]
  GAG content (Alcian blue): increased
[4]; day 7, peptides compared to CXCL12/CXCL14 proteins, listed as CXCL12 peptide
  expression of chondrogenic genes (COMP, SOX9, COL2A1, ACAN, ITGB1, SOSTDC1): significantly upregulated; also recorded: greater ability
[4]; day 7 of treatment with peptide
  expression of chondrogenic genes (COMP, SOX9, COL2A1, ACAN, ITGB1): significantly upregulated
[4]; in the absence of TGF-β
  chondrogenic genes: evident
[4]; in the presence of TGF-β, day 7
  expression of chondrogenic genes ITGB1 and COMP: significantly enhanced
[5]
  chondrogenic gene expression (COMP, SOX9, COL2A1, ACAN, ITGB1): significantly upregulated

## AANVAHLAILN [CXCL12-PM1]
[4]; CXCL12-P vs CXCL12-PM1, day 7
  expression of chondrogenic marker genes, variant vs unmodified peptide: no significant changes
[4]
  expression of chondrogenic genes (SOX9, COL2A1, COMP, ACAN, ITGB1, CXCL14, CXCR4): significantly enhance

## CXCL12: C-X-C motif chemokine 12, also known as stromal cell-derived factor 1 (SDF-1)
[6]
  expression of SOX9, type II collagen, and aggrecan: notably induced

## ITTKSVSRYRGQAH [CXCL14-PM2]
[2]
  GAG deposition (Alcian blue): increased GAG deposition; also recorded: enhance GAG contents
[4]
  expression of chondrogenic genes (SOX9, COL2A1, COMP, ACAN, ITGB1, CXCL14, CXCR4): significantly enhance

## ITTASVSAYAGQEH [CXCL14-PM1]
[2]
  GAG deposition (Alcian blue): increased GAG deposition; also recorded: enhance GAG contents
[4]
  expression of chondrogenic genes (SOX9, COL2A1, COMP, ACAN, ITGB1, CXCL14, CXCR4): significantly enhance

## MGYGAALASMTDAYAL (MGYQAALASMTDAYAL) [CXCR4-PM1]
[2]
  GAG deposition (Alcian blue): increased GAG deposition; also recorded: significantly enhanced
[4]
  expression of chondrogenic genes (SOX9, COL2A1, COMP, ACAN, ITGB1, CXCL14, CXCR4): significantly enhance

## ITTKSVSRYRGDEH [CXCL14-PM3]
[2]
  GAG deposition (Alcian blue): increased GAG deposition; also recorded: did not significantly alter GAG contents
[4]
  expression of chondrogenic genes (SOX9, COL2A1, COMP, ACAN, ITGB1, CXCL14, CXCR4): significantly enhance
